Legend:
[1] = Peptide titrations by SUVs followed by tryptophan fluorescence (solution-to-membrane partition); assay type: physicochemical; conditions: for Partition coefficient KX: POPC:POPG 8:2 SUVs, buffer A pH 7.4, 25 °C, tryptophan fluorescence ratio 330/370 nm; for Partition coefficient KX / ∆GKx for POPC POPG 8:2: S.D. within ± 10%; for Kd: converted from KX: [W]/KX = Kd, [W] = 55.5 M, read-out: Kd for POPC:POPG 8:2; for ∆GKx for POPC POPG 8:2: ∆GKx = -RT Ln Kx
Method: Lipid vesicles preparation
Small unilamellar vesicles (SUVs) and large unilamellar vesicles (LUVs) were prepared with POPC and POPG at a molar ratio of 8:2, at a lipid concentration of 10 mM in buffer A, as previously described 1. Briefly, SUVs and LUVs were prepared by reverse phase evaporation and filtered through polycarbonate filters of 1 μm and 0.2 μm of pore size diameter to obtain L UV. SUVs were further sonicated. The hydrodynamic diameters and mean net charge of the vesicles were measured by dynamic light scattering (DLS) and electrophoretic mobility, respectively, using a ZetaSizer NanoZS (Malvern Pananalytical , Orsay, France) 11.
Peptide titrations bySUV s and CaM followed by tryptophan fluorescence
Titrations were carried out with a FP-8200 Jasco spectrofluorimeter, equipped with a Pelt ie r - thermostated ETC-272T at 25°C. A bandwidth of 5 nm was used for both excitation and […]
(Hellma, France) with constant stirring. Fluorescence emission was recorded between 300 and […]
400 nm at a scan rate of 100 nm/min, with an excitation wavelength of 280 nm. Fluorescence emission spectra were corrected for SUV or CaM baselines . Fluorescence intensity ratio at 330 nm over 370 nm was use d to measure the partition coefficient (K X) of peptides between the solution andmembrane s 1, 12 and the affinity (K d) of peptides for CaM 13.
Determination of partition coefficient KX and dissociation constant Kd from […]
The partition coefficient KX is defined as the ratio of protein in the lipid (PL) and in buffer […]
(PW) pha se s 12, 14, expressed by: KKXX = [LL ]? , giving[PPWW ] [PPWW ]= [WW], where [W] the […]
concentration of water (55.5 M) and [L] the lipid concentration.
The fraction of peptide partitioned into the membrane, fPL, is equal to:
ffPPLL = [PPLL ][PPTT ]= [PPLL ][PPLL ]+[PPWW ]= 11+([PPWW ])= 11+( [WW]), where PT is the total concentration of peptides [PP TT ]= [PP LL ]+ [PP WW ]. […]
The equations a re fitted to the experimental data using the KaleidaGraph software, providing the KX and K d value s. The partition coefficient is related to the apparent dissociation constant:
KKXX × KKdd = [WW ] and to the free energy of partition ΔG Kx = -RTln(K X), where ΔG is the free energy in kcal/mol, R the gas constant (R = 1.98 x 10-3 kcal/mol/K) and T the temperature i n Kelvin. The free energy of peptide CaM interaction, ∆G Kd, is given by ΔG Kd = RTln(K d).
Sedimentation velocity-Analytical ultracentrifugation (SV -AUC) […]
ratio 1:1 (at 70 µM each). Samples were incubated 2h at 20°C in the ultracentrifuge and, then span at 42,000 rpm in an An-50 Ti rotor. […]

[2] = Membrane permeabilization of ANTS/DPX-loaded LUVs; conditions: for CP1/2, peptide concentration required to induce recovery of 50% of ANTS fluorescence intensity upon LUVs permeabilization: ANTS:DPX LUVs POPC:POPG 8:2, 0.45 mM lipid, buffer A pH 7.4, 25 °C, ex 390/em 515 nm, S.D. ± 5%
Method: To monitor membrane permeabilization induced by peptides, ANTS (fluorophore probe) and
DPX (quencher) were encapsulated into large unilamellar vesicles (LUVs). The LUVs were
prepared at a concentration of 10 mM lipid at a POPC:PO PG molar ratio of 8:2 containing 20
mM ANTS and 60 mM DPX. The multilamellar vesicle suspension was extrudedthrough 0.4-
and 0.2 μm polycarbonate filters to produce LUVs. The unencapsulated ANT S a nd DPX we re
removed by gel filtration with a 5 mL Sephadex G -25 column (GE Healthcare Life Sciences ).
For permeabilization assays, LUVs were incubated in buffer A at 0.45 mM lipid
concentration at 25°C in a 101-QS cuvette (Hellma, France) and under constant stirring.
excitation wavelength was set at 390 nm and the emission of ANTS was continuously
measured at 515 nm. The maximum intensity of permeabilization, corresponding to the
maximum recovery of ANTS fluorescence, was measured after addition of 0.1% of Triton
X100. The concentration of membrane-bound peptide s required to induce the recovery of half
intensity of the ANTS fluorescence (C P1/2) was extracted from the permeabilization intensity
a s a function of peptide concentration 1.
LUVs were incubated in buffer B at a lipid concentration of 0.45 mM.
After a few seconds of permeabilization,
holo-Ca M wa s added t o t he solution at a peptide:Ca M molar ratio of 1:3. EDT A wa s
subsequently added in excess to chelate calcium and convert holo -CaM to apo -C a M .

[3] = biological target: T1, calmodulin (CaM) (Homo sapiens, UniProt P0DP23); assay: Peptide titrations by CaM followed by tryptophan fluorescence, and ITC (Kd for CaM); assay type: binding; conditions: for Kd: holo-CaM, from fluorescent titrations and ITC, 25 °C, average of at least three independent replicates; for Kd / ∆GKd for CaM: S.D. within ± 10%; for ∆GKd for CaM: ΔGKd = RTln(Kd)
T1 construct: made in house; host or cells: E. coli
Source text: peptides by CaM and is expressed as follows: 𝐾𝐾 𝑑𝑑 = [𝑃𝑃 ]∗[𝐶𝐶𝐶𝐶𝐶𝐶 ][𝑃𝑃:𝐶𝐶𝐶𝐶𝐶𝐶] , given 𝐾𝐾𝑑𝑑[𝐶𝐶𝐶𝐶𝐶𝐶]= [𝑃𝑃 ][𝑃𝑃 :𝐶𝐶𝐶𝐶𝐶𝐶]and the fraction of complex, fP:CaM, i s: 𝑓𝑓𝑃𝑃:𝐶𝐶𝐶𝐶𝐶𝐶 = [𝑃𝑃 :𝐶𝐶𝐶𝐶𝐶𝐶 ][𝑃𝑃:𝐶𝐶𝐶𝐶𝐶𝐶]+[𝑃𝑃]= 11+ [𝑃𝑃 ]= 11+ 𝐾𝐾𝑑𝑑.

[4] = Synchrotron radiation circular dichroism, alpha-helical content (Bestsel); assay type: physicochemical; conditions: 25 °C, far-UV SRCD; for alpha-helical content, TFE 20%: 20% TFE; for alpha-helical content, POPC:POPG 8:2: SUVs POPC:POPG 8:2 at 2 mM lipid; for alpha-helical content, Solution: buffer A
Method: Synchrotron Radiation Circular Dichroism
Synchrotron radiation circular dichroism (SRCD) was performed on the DISCO beamline of the synchrotron SOLEIL (Saint -Aubin, France) . Spectra were recorded at 25°C with an integration time of 1.2 s and a bandwidth of 1 nm with a resolution of 1 nm. A far-UV spectrum represents the average of four individual scans. QS cells (Hellma, France) with a pathlength of 20, 50, 100 or 200 μm (depending on final protein concentrations) were used to record spectra in the fa r -UV range (from 190 to 250 nm). CD spectra of peptides and proteins were measured in buffers A and B, 20% of trifluoroethanol (TFE), in the presence of SUVs (POPC :PO PG 8: 2) or Ca M. Secondary structure content was estimated using Bestsel software […]
Table S8: Estimation of the α -helical content of P454-derived peptides. The secondary structure content is estimated using the on-line Bestsel software 17 available at http://bestsel.elte.hu/index.php. […]
peptide in buffer A, in 20% TFE and in the presence of POPC POPG (molar ratio 8:2) at 2 mM lipid concentration. The far -UV CD spectra of several P454-derived peptides are shown […]

Compound	Partition coefficient KX [1]	Kd [1]	∆GKx for POPC POPG 8:2 [1]	CP1/2, peptide concentration required to induce recovery of 50% of ANTS fluorescence intensity upon LUVs permeabilization [2]	Kd [3]	∆GKd for CaM [3]	alpha-helical content, TFE 20% [4]	alpha-helical content, POPC:POPG 8:2 [4]	alpha-helical content, Solution [4]	Decrease of affinity for CaM relative to P454 ([3]; from Table S3)	Vesicle permeabilization (in words) ([2]; ANTS:DPX LUVs POPC:POPG 8:2)
Ac-ASAHWGQRAAQGAQAVAAAQRLVHAIALMTQ-NH2 [P454 L463A]	630 ×10^3	90 µM	-7.9 kcal/mol	0.41 µM	0.2 µM	-9.1 kcal/mol	48 ± 3%	19 ± 2%	14 ± 2%	–	–
Ac-ASAHWGQRALQGAQAVAAAQRLVHAIAAMTQ-NH2 [P454 L481A]	780 ×10^3	70 µM	-8 kcal/mol	0.06 µM	0.09 µM	-9.6 kcal/mol	49 ± 1%	44 ± 3%	5 ± 1%	–	–
Ac-ASAHWGQRALQGAQAVAAAQRLVSAIALMTQ-NH2 [P454 H477S]	340 ×10^3	160 µM	-7.5 kcal/mol	0.25 µM	0.19 µM	-9.1 kcal/mol	40 ± 1%	20 ± 2%	4 ± 2%	–	–
Ac-ASAHWGQRALQGAQAVAAAQRLVHAVALMTQ-NH2 [P454 I479V]	560 ×10^3	100 µM	-7.8 kcal/mol	0.09 µM	0.11 µM	-9.4 kcal/mol	47 ± 6%	37 ± 2%	2 ± 1%	–	–
Ac-ASAHWGQRALQGAQAVAAAQQLVHAIALMTQ-NH2 [P454 R2Q]	150 ×10^3	370 µM	-7 kcal/mol	0.11 µM	0.18 µM	-9.2 kcal/mol	–	–	–	–	–
Ac-ASAHWGQRALQGAQAVAAAQRLVSAAALMTQ-NH2 [P454 H477S-I479A]	105 ×10^3	530 µM	-6.8 kcal/mol	1.88 µM	1.19 µM	-8.0 kcal/mol	51 ± 4%	27 ± 3%	2 ± 2%	≈ 20 fold	–
Ac-ASAHWGQRALQGAQAVAAAQRLVHAAALMTQ-NH2 [P454 I479A]	330 ×10^3	170 µM	-7.5 kcal/mol	7.86 µM	–	-7.9 kcal/mol	29 ± 1%	12 ± 3%	8 ± 2%	–	–
Ac-ASAHAGQRALQGAQAVAAAQRLVHAAALMTQ-NH2 [P454 W458A-I479A]	4.2 ×10^3	13200 µM	-4.9 kcal/mol	> 80 µM	2.04 µM	-7.7 kcal/mol	55 ± 1%	7 ± 3%	10 ± 3%	–	do not permeabilize vesicles
Ac-ASAHWGQQALQGAQAVAAAQRLVHAIALMTQ-NH2 [P454 R1Q]	190 ×10^3	290 µM	-7.2 kcal/mol	0.22 µM	0.1 µM	-9.5 kcal/mol	–	–	–	–	–
CC[C@H](C)[C@H](NC(=O)[C@H](C)NC(=O)[C@H](Cc1c[nH]cn1)NC(=O)[C@@H](NC(=O)[C@H](CC(C)C)NC(=O)[C@H](CCCNC(=N)N)NC(=O)[C@H](CCC(N)=O)NC(=O)[C@H](C)NC(=O)[C@H](C)NC(=O)[C@H](C)NC(=O)[C@@H](NC(=O)[C@H](C)NC(=O)[C@H](CCC(N)=O)NC(=O)[C@H](C)NC(=O)CNC(=O)[C@H](CCC(N)=O)NC(=O)[C@H](CC(C)C)NC(=O)[C@H](C)NC(=O)[C@H](CCCNC(=N)N)NC(=O)[C@H](CCC(N)=O)NC(=O)CNC(=O)[C@@H](N)Cc1c[nH]c2ccccc12)C(C)C)C(C)C)C(=O)N[C@@H](C)C(=O)N[C@@H](CC(C)C)C(N)=O [P458]	190 ×10^3	290 µM	-7.2 kcal/mol	1.26 µM	–	–	50%	23 ± 2%	10 ± 4%	–	–
Ac-ASAHWGQAALQGAQAVAAAQALVHAIALMTQ-NH2 [P454 R12A]	280 ×10^3	200 µM	-7.4 kcal/mol	0.14 µM	–	–	–	–	–	–	–

From PMC8097335, “A High‐Affinity Calmodulin‐Binding Site in the CyaA Toxin Translocation Domain is Essential for Invasion of Eukaryotic Cells” (Advanced Science, 2021)
